Reference: US11479550B2, “EP4 antagonist” (ONO PHARMACEUTICAL CO., LTD., priority 2017, dated 2022)

Columns and labels:
human EP4 receptor = human EP4 receptor (Homo sapiens (Human), UniProt P35408); experiment: EP4 antagonistic activity measurement experiment using prostanoid receptor subtype expressing cells; format: cell-based; details: CHO cells expressing human EP4 receptor; inhibition of cAMP production by PGE2 10 nM; 30 minutes at room temperature
Experimental: CHO cells expressing human EP4 receptor subtypes were prepared according to the methods of Nishigaki et al. (Non-Patent Literature 4), and used for experiment. Cells cultured to subconfluent were detached, and suspended in an assay medium (MEM containing 1 mmol/L IBMX, 1% HSA) such that a concentration became 1×10^6 cells/mL. For reaction, PGE2 was added to the cell suspension (25 μL) in a final concentration of 10 nmol/L, either alone or as a 25-μL PGE2 solution containing the test compound. After 30 minutes of reaction at room temperature, the amount of cAMP in the cells was quantified according to the method in the descriptions of the cAMP assay kit (CISBIO).
Note here that the antagonistic effect (IC50 value) of the test compound was calculated as a value that represents an inhibition rate against a reaction with PGE2 alone at 10 nM, a concentration that produces a submaximal cAMP producing effect.

human EP3 receptor = human EP3 receptor (Homo sapiens (Human), UniProt P43115); experiment: EP3 binding activity measurement experiment using prostanoid receptor subtype expressing cells; details: human EP3 receptor expressing cell membrane fraction; [3H]-PGE2 2.5 nmol/L; Ki calculated from estimated IC50
Experimental: To each well of a 96 well plate, 10 μL of a medium (dimethyl sulfoxide; DMSO) which had been 10-fold diluted with an assay buffer solution (10 mmol/L KH2PO4—KOH containing 1 mmol/L EDTA, 10 mmol/L Mg^2+ and 100 mmol/L NaCl, pH6.0) or a DMSO solution of a test compound (final concentration of DMSO: 0.5%), 90 μL of assay buffer solution, 50 μL of 10 nmol/L [^3H]-PGE2 (final concentration: 2.5 nmol/L), and 50 μL of human EP3 receptor expressing cell membrane fraction (manufactured by Millipore) (membrane protein mass: 2.5 μg) were placed, and subjected to incubation at room temperature. In nonspecific binding group, instead of the medium, […] of PGE2 was added (final concentration of PGE2: 10 μmol/L). After 60 minutes, a membrane fraction was subjected to suction filtration using a cell harvester, and collected onto a glass fiber (GF/B) plate (hereinafter, “filter plate”) which had been wetted with a washing buffer solution (10 mmol/L KH2PO4—KOH containing 100 mmol/L NaCl, pH6.0) in advance. Furthermore, an operation of adding about 0.2 mL of the washing buffer solution to the 96 well plate after suction filtration, and carrying out suction filtration was repeated twice, and the remaining membrane fractions were collected. The filter plate was washed with […] of washing buffer solution twice, and then dried at 50° C. to 60° C. for about 60 minutes. After an accessary back seal was attached to the bottom surface of the filter plate, about 50 μL per well of liquid scintillation cocktail was added to the filter plate, and a scaling film sheet was attached to the upper surface of the filter plate. The filter plate was shaken, and then radioactivity (cpm) of the filter plate was measured using a microplate scintillation counter. A specific binding amount of [^3H]-PGE2 to EP3 receptor was calculated by subtracting the radioactivity of the nonspecific binding group from the radioactivity other than the radioactivity of the nonspecific binding group. The inhibition rate by the test compound was calculated from the specific binding amount of [^3H]-PGE2 in a medium group and the compound of the present invention group, a Ki value (dissociation constant of the test compound) was calculated from estimated IC50 value (the concentration of the test compound required for inhibiting 50% with respect to the specific binding amount of the medium group) according to the following formula.
Note here that the Kd value of [^3H]-PGE2 was estimated from nonlinear regression analysis by calculating a specific binding amount at the time when [^3H]-PGE2 having various concentrations according to the above method was added. As a result, it was shown that the compound of the present invention had weak binding activity with respect to EP3 receptor, and was an antagonist selective to the EP4 receptor. Note here that binding activities with respect to EP1 and EP2 receptors can be measured by the same method as the measurement experiment of the EP3 binding activity measurement experiment.

human EP4 receptor, sequence (P35408 whole entry): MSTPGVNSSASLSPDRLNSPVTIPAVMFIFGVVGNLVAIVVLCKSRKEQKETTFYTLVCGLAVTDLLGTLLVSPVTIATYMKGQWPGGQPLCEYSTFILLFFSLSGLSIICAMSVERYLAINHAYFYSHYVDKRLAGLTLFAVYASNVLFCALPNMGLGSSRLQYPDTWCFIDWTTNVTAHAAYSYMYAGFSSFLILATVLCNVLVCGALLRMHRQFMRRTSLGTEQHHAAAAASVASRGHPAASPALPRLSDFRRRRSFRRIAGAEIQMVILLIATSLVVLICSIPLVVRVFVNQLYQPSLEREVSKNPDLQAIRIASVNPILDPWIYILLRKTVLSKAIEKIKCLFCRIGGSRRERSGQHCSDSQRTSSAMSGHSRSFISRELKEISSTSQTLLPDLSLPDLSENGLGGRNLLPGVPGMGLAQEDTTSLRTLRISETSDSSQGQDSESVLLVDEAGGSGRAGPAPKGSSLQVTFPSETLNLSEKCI
human EP3 receptor, sequence (P43115 whole entry): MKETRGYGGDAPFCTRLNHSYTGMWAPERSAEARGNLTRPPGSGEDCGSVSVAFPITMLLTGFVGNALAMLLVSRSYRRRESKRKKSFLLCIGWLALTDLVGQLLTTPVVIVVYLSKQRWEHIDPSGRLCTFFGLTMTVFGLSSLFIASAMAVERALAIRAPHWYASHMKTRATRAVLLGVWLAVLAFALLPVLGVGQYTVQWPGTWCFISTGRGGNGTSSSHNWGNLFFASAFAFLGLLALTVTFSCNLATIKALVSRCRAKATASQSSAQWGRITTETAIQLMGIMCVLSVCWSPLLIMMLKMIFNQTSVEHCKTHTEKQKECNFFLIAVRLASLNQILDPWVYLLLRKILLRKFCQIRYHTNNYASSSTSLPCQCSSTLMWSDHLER

| SMILES | IC50 (human EP4 receptor) | Ki (human EP3 receptor) |
| --- | --- | --- |
| COCCNC(=O)c1ccc2c(C)cn(C(C)C(=O)Nc3cc(Cn4cc(C)cn4)ccc3CCCC(=O)O)c2c1 (single isomer, unassigned) [Example 3-9(2), 4-{2-[(2-{6-[(2-methoxyethyl)carbamoyl]-3-methyl-1H-indol-1-yl}propanoyl)amino]-4-[(4-methyl-1H-pyrazol-1-yl)methyl]phenyl}butanoic acid] | 0.7 nM | 410 nM |
| CNC(=O)c1ccc2c(c1)c(C)cn2C(C)C(=O)Nc1cc(Cn2cc(C)cn2)ccc1CCCC(=O)O (single isomer, unassigned) [Example 8-3(2), 4-{2-({2-[3-methyl-5-(methylcarbamoyl)-1H-indol-1-yl]propanoyl}amino)-4-[(4-methyl-1H-pyrazol-1-yl)methyl]phenyl}butanoic acid] | 4.8 nM | 1500 nM |
| COCCNC(=O)c1ccc2c(c1)c(C)cn2C(C)C(=O)Nc1cc(Cn2cc(C)cn2)ccc1CCCC(=O)O (single isomer, unassigned) [Example 8-13(2), 4-{2-[(2-{5-[(2-methoxyethyl)carbamoyl]-3-methyl-1H-indol-1-yl}propanoyl)amino]-4-[(4-methyl-1H-pyrazol-1-yl)methyl]phenyl}butanoic acid] | 6.3 nM | 1600 nM |
| COCCNC(=O)c1ccc2c(C)cn(C(C)C(=O)Nc3cc(C#N)ccc3CCCC(=O)O)c2c1 (single isomer, unassigned) [Example 11-15(2), 4-{4-cyano-2-[(2-{6-[(2-methoxyethyl)carbamoyl]-3-methyl-1H-indol-1-yl}propanoyl)amino]phenyl}butanoic acid] | 1.9 nM | 2300 nM |
| CC(C(=O)Nc1cc(C#N)ccc1CCCC(=O)O)c1c[nH]c2ccccc12 (stereo not drawn) [4-[4-cyano-2-[2-(indol-3-yl)propanoylamino]phenyl]butanoic acid, reference compound] | 360 nM |  |
| CNC(=O)c1ccc2c(C)cn(C(C)C(=O)Nc3cc(CN4CCCS4(=O)=O)ccc3CCCC(=O)O)c2c1 (stereo not drawn) [Example 1, 4-{4-[(1,1-dioxide-1,2-thiazolidin-2-yl)methyl]-2-({2-[3-methyl-6-(methylcarbamoyl)-1H-indol-1-yl]propanoyl}amino)phenyl}butanoic acid] | 27 nM | > 10000 nM |
| CNC(=O)c1ccc2c(C)cn(C(C)C(=O)Nc3cc(COc4cc(C)nc(C)c4)ccc3CCCC(=O)O)c2c1 (stereo not drawn) [Example 1-5, 4-[4-{[(2,6-dimethyl-4-pyridinyl)oxy]methyl}-2-({2-[3-methyl-6-(methylcarbamoyl)-1H-indol-1-yl]propanoyl}amino)phenyl]butanoic acid] | 4.9 nM |  |
| CNC(=O)c1ccc2c(C)cn(C(C)C(=O)Nc3cc(Cn4cc(Cl)cn4)ccc3CCCC(=O)O)c2c1 (stereo not drawn) [Example 1-14, 4-{4-[(4-chloro-1H-pyrazol-1-yl)methyl]-2-({2-[3-methyl-6-(methylcarbamoyl)-1H-indol-1-yl]propanoyl}amino)phenyl}butanoic acid] | 3.3 nM |  |
| CNC(=O)c1ccc2c(C)cn(C(C)C(=O)Nc3cc(CN4CCCCS4(=O)=O)ccc3CCCC(=O)O)c2c1 (stereo not drawn) [Example 2, 4-{4-[(1,1-dioxide-1,2-thiazinan-2-yl)methyl]-2-({2-[3-methyl-6-(methylcarbamoyl)-1H-indol-1-yl]propanoyl}amino)phenyl}butanoic acid] | 39 nM |  |
| CNC(=O)c1ccc2c(C)cn(C(C)C(=O)Nc3cc(Cn4cc5c(n4)CCC5)ccc3CCCC(=O)O)c2c1 (stereo not drawn) [Example 2-18, 4-[4-(5,6-dihydrocyclopenta[c]pyrazol-2(4H)-ylmethyl)-2-({2-[3-methyl-6-(methylcarbamoyl)-1H-indol-1-yl]propanoyl}amino)phenyl]butanoic acid] | 5.5 nM |  |
| CCNC(=O)c1ccc2c(C)cn([C@H](C)C(=O)Nc3cc(C#N)ccc3CCCC(=O)O)c2c1 [Example 11-1(2)] | 1.3 nM |  |
| Cc1cn(C(C)C(=O)Nc2cc(C#N)ccc2CCCC(=O)O)c2cc(C(=O)NCc3ccccc3)ccc12 (stereo not drawn) [Example 11-8, 4-[2-({2-[6-(benzylcarbamoyl)-3-methyl-1H-indol-1-yl]propanoyl}amino)-4-cyanophenyl]butanoic acid] | 4 nM |  |
| CNC(=O)c1ccc2c(C)cn(C(C)C(=O)Nc3cc(Oc4ccccc4)ccc3CCCC(=O)O)c2c1 (stereo not drawn) [Example 13, 4-[2-({2-[3-methyl-6-(methylcarbamoyl)-1H-indol-1-yl]propanoyl}amino)-4-phenoxyphenyl]butanoic acid] | 0.79 nM |  |
| CNC(=O)c1ccc2c(C)cn(C(C)C(=O)Nc3cc(C(O)c4cnn(C)c4)ccc3CCCC(=O)O)c2c1 (stereo not drawn) [Example 18-3] | 6.2 nM |  |
| CNC(=O)c1ccc2c(C)cn(C(C)C(=O)Nc3cc(C(=O)c4cnn(C)c4)ccc3CCCC(=O)O)c2c1 (stereo not drawn) [Example 18-5(2)] | 3.2 nM | 120 nM |
